Measured values published in ChEMBL document CHEMBL1833853, “Synthesis and in-vitro anticancer activity of 3,5-bis(indolyl)-1,2,4-thiadiazoles” (Bioorg Med Chem Lett, 2011).

Experiments:
Format in all cases: functional, cell-based
[1] = test system: MCF7; experiment: Cytotoxicity against human MCF7 cells
[2] = test system: PC-3; experiment: Cytotoxicity against human PC3 cells
[3] = test system: MDA-MB-231; experiment: Cytotoxicity against human MDA-MB-231 cells
[4] = test system: DU-145; experiment: Cytotoxicity against human DU145 cells
[5] = test system: MIA PaCa-2; experiment: Cytotoxicity against human MIAPaCa2 cells
[6] = test system: LNCaP; experiment: Cytotoxicity against human LNCAP cells

Compound	IC50 [1]	IC50 [2]	IC50 [3]	IC50 [4]	IC50 [5]	IC50 [6]
COc1ccc2c(-c3nsc(-c4c[nH]c5cc(OC)ccc45)n3)c[nH]c2c1	35.3 µM	76.1 µM	44.3 µM	42.3 µM	95.3 µM	35.8 µM
COc1ccc2c(c1)c(-c1nsc(-c3cn(C)c4ccc(OC)cc34)n1)cn2C	79.9 µM	270 µM	95.7 µM	137 µM	177 µM	111 µM
Cn1c(-c2nsc(-c3cc4ccccc4n3C)n2)cc2ccccc21	66.4 µM	432 µM	> 1000 µM	> 1000 µM	260 µM	207 µM
Cn1cc(-c2nsc(-c3cn(C)c4ccccc34)n2)c2ccccc21	177 µM	92.3 µM	236 µM	64 µM	185 µM	226 µM
COc1ccc2c(c1)c(-c1nsc(-c3cn(Cc4ccc(Cl)cc4)c4ccc(OC)cc34)n1)cn2Cc1ccc(Cl)cc1	32.1 µM	21.4 µM	67.9 µM	370 µM	21.2 µM	14.6 µM
Clc1ccc(Cn2cc(-c3nsc(-c4cn(Cc5ccc(Cl)cc5)c5ccccc45)n3)c3ccccc32)cc1	> 1000 µM	> 1000 µM	> 1000 µM	> 1000 µM	101 µM	413 µM
COc1ccc2[nH]cc(-c3nsc(-c4c[nH]c5ccc(OC)cc45)n3)c2c1	424 µM	224 µM	> 1000 µM	206 µM	45.8 µM	295 µM
Brc1ccc2c(-c3nsc(-c4c[nH]c5cc(Br)ccc45)n3)c[nH]c2c1	39.2 µM	132 µM	38.3 µM	30.2 µM	83 µM	80.1 µM
Cn1cc(-c2nsc(-c3cn(C)c4ccc(Br)cc34)n2)c2cc(Br)ccc21	63.6 µM	> 1000 µM	> 1000 µM	> 1000 µM	> 1000 µM	> 1000 µM
O=[N+]([O-])c1ccc2[nH]cc(-c3nsc(-c4c[nH]c5ccc([N+](=O)[O-])cc45)n3)c2c1	83.5 µM	680 µM	98.6 µM	325 µM	187 µM	177 µM
c1ccc2c(-c3nsc(-c4c[nH]c5ccccc45)n3)c[nH]c2c1	143 µM	> 1000 µM	702 µM	248 µM	> 1000 µM	> 1000 µM
c1ccc2c(Cc3nsc(Cc4c[nH]c5ccccc45)n3)c[nH]c2c1	40.5 µM	44.2 µM	65 µM	51.2 µM	31.3 µM	43.3 µM
c1ccc2[nH]c(-c3nsc(-c4cc5ccccc5[nH]4)n3)cc2c1	162 µM	326 µM	> 1000 µM	453 µM	102 µM	247 µM
Brc1ccc2[nH]cc(-c3nsc(-c4c[nH]c5ccc(Br)cc45)n3)c2c1	31.3 µM	162 µM	100 µM	56.7 µM	124 µM	159 µM
